According to patent US12383526B2, “Optimized sigma-1 agonist method of responder selection and treatment” (ANAVEX LIFE SCIENCES CORP., priority 2018, dated 2025):

Tested on: Alzheimer's disease / dementia patients
Experiment: Sigma-1 agonist responder determination and therapy, single-patient examples 6-13
Format: in vivo, human
Conditions: 6 months
Procedure: A person presents with diagnosed Alzheimer's disease. Their SIGMAR1 gene is analyzed to the extent that it is determined that they carry glutamine at the 2 position of the SIGMAR1 gene. This is the wildtype. They are treated with A2-73 daily with a 30 mg oral dose. For 6 months.
A person presents with diagnosed Alzheimer's disease. A cheek swab is taken and a genotype assay is performed to determine the presence of the SIGMAR1 2P genotype. By such analysis it is determined that the subject carries glutamine at the 2 position of the SigmaR1 gene receptor (protein). They are treated with ANAVEX2-73 daily with a 30 mg oral dose. For 6 months.
A person presents with diagnosed dementia. Their SIGMAR1 gene is analyzed to the extent that it is determined that they carry proline at the 2 position of the SIGMAR1 gene. They are treated with ANAVEX2-73 daily with a 80 mg oral dose in combination with 1.5 mg oral rivastigmine twice per day for 6 months.
A person presents with diagnosed Alzheimer's disease. […] They are treated with the A2-73 daily with a 30 mg oral dose. For 6 months.
A person presents with diagnosed Alzheimer's disease. […] They are treated with A2-73 daily with a 30 mg oral dose. For 6 months.
A person presents with diagnosed dementia. They carry glutamine at the 2 position of the SIGMAR1 gene. It is determined that they carry the KANSL1_p.P1010L/P304L/P946L mutation. They are treated with ANAVEX2-73 daily with a 70 mg oral dose in combination with 7 mg oral memantine daily for 6 months.

Measured: disease course

CN(C)CC1CCOC1(c1ccccc1)c1ccccc1.Cl (stereo not drawn) [ANAVEX2-73, tetrahydro-N,N-dimethyl-2,2-diphenyl-3-furanmethanamine hydrochloride]
stable and not progress: Example 6: person, Alzheimer's disease, glutamine at the 2 position of SIGMAR1, 30 mg oral daily | Example 7: person, Alzheimer's disease, glutamine at the 2 position (cheek swab genotype assay), 30 mg oral daily | Example 9: person, dementia, proline at the 2 position of SIGMAR1, 80 mg oral daily in combination with 1.5 mg oral rivastigmine twice per day | Example 10: person, Alzheimer's disease, no COMT rs113895332/rs61143203 mutation, 30 mg oral daily | Example 11: person, Alzheimer's disease, no SIGMAR1 rs1800866, 30 mg oral daily | Example 13: person, dementia, glutamine at the 2 position, KANSL1_p.P1010L/P304L/P946L mutation, 70 mg oral daily in combination with 7 mg oral memantine daily
